Data: patent publication US12054483B2, “Small molecule inhibitors of DYRK/CLK and uses thereof” (Arizona Board of Regents on Behalf of the University of …, priority 2018, dated 2024)

What follows are molecules tested against DYRK1A (Homo sapiens, UniProt Q13627) (assay: Affinity testing of compounds with DYRK1A (KD)). Details: DYRK1A affinity key classes.
Assay type: binding

SMILES | Kd [nM]
CCOC(=O)c1ccc(-n2c(C)nc3ccc(-c4ccncc4)nc32)cc1 [Compound 40, ethyl 4-(2-methyl-5-(pyridin-4-yl)-3H-imidazo[4,5-b]pyridin-3-yl)benzoate] | 0.5 to 100
CN1CCN(c2ccc(-c3cnc4ccc(-c5ccncc5)nn34)cn2)CC1 [Compound 87, 3-(6-(4-methylpiperazin-1-yl)pyridin-3-yl)-6-(pyridin-4-yl)imidazo[1,2-b]pyridazine] | 0.5 to 100
Nc1cc(-c2ccc3ncc(-c4ccc(CN5CCOCC5)cc4)n3n2)ccn1 [Compound 108, 4-(3-(4-(morpholinomethyl)phenyl)imidazo[1,2-b]pyridazin-6-yl)pyridin-2-amine] | 0.5 to 100
Cc1nc2ccc(-c3ccncc3)nc2n1-c1ccc(CN2CCOCC2)cn1 [Compound 64, 4-((6-(2-methyl-5-(pyridin-4-yl)-3H-imidazo[4,5-b]pyridin-3-yl)pyridin-3-yl)methyl)morpholine] | 501 to 10000
c1cn2nc(-c3cn[nH]c3)ccc2n1 [Compound 26, 6-(1H-pyrazol-4-yl)imidazo[1,2-b]pyridazine] | 101 to 500
Cc1nc2ccc(-c3ccncc3)nc2n1-c1ccc(=O)n(C)c1 [Compound 41, 1-methyl-5-(2-methyl-5-(pyridin-4-yl)-3H-imidazo[4,5-b]pyridin-3-yl)pyridin-2(1H)-one] | 101 to 500
Cc1nc2ncc(-c3ccncc3)nc2n1-c1ccc(N2CCOCC2)cc1 [Compound 129, 4-(4-(2-methyl-6-(pyridin-4-yl)-1H-imidazo[4,5-b]pyrazin-1-yl)phenyl)morpholine] | 501 to 10000
CC(=O)N1C[C@@H]2[C@H](C1)[C@H]2n1c(C)nc2ccc(-c3ccncc3)nc21 [Compound 38, 1-((1R,5S,6s)-6-(2-methyl-5-(pyridin-4-yl)-3H-imidazo[4,5-b]pyridin-3-yl)-3-azabicyclo[3.1.0]hexan-3-yl)ethan-1-one] | 0.5 to 100
Fc1cc2ncn(-c3ccc4c(c3)OCO4)c2cc1-c1ccncc1 [Compound 2, 1-(benzo[d][1,3]dioxol-5-yl)-5-fluoro-6-(pyridin-4-yl)-1H-benzo[d]imidazole] | 0.5 to 100
Cc1nc2ccc(-c3ccncc3)nc2n1-c1ccc(CN2C[C@@H]3C[C@@H]2CO3)cc1 [Compound 124, (1S,4R)-5-(4-(2-methyl-5-(pyridin-4-yl)-3H-imidazo[4,5-b]pyridin-3-yl)benzyl)-2-oxa-5-azabicyclo[2.2.1]heptane] | 0.5 to 100
COc1cc(-c2ccc3ncc(-c4ccc(CN5CCOCC5)cc4)n3n2)ccn1 [Compound 107, 4-(4-(6-(2-methoxypyridin-4-yl)imidazo[1,2-b]pyridazin-3-yl)benzyl)morpholine] | 101 to 500
Cc1cc(-c2ccc3ncc(-c4ccc(CN5CCCC(F)(F)C5)cc4)n3n2)ccn1 [Compound 89, 3-(4-((3,3-difluoropiperidin-1-yl)methyl)phenyl)-6-(2-methylpyridin-4-yl)imidazo[1,2-b]pyridazine] | 101 to 500
O=C(O)c1ccnc(-n2cnc3ccc(-c4ccncc4)c(F)c32)c1 [Compound 13, 2-(7-fluoro-6-(pyridin-4-yl)-1H-benzo[d]imidazol-1-yl)isonicotinic acid] | 501 to 10000

More lines, now with the values ahead:

Kd [nM] | SMILES
0.5 to 100 | Cc1nc2ccc(-c3ccnc(N)c3)nc2n1-c1cnc(N2CCOCC2)c(C2CC2)c1 [Compound 163, 4-(3-(5-cyclopropyl-6-morpholinopyridin-3-yl)-2-methyl-3H-imidazo[4,5-b]pyridin-5-yl)pyridin-2-amine]
0.5 to 100 | Cc1nc2ccc(-c3ccnc(N)c3)nc2n1-c1ccc(N2CC3CCC(C2)O3)c(F)c1 [Compound 167, 4-(3-(4-(8-oxa-3-azabicyclo[3.2.1]octan-3-yl)-3-fluorophenyl)-2-methyl-3H-imidazo[4,5-b]pyridin-5-yl)pyridin-2-amine]
0.5 to 100 | Cc1nc2ccc(-c3ccnc(N)c3)nc2n1-c1ccc(N2C[C@@H](C)O[C@@H](C)C2)nc1 [Compound 161, 4-(3-(6-((2S,6R)-2,6-dimethylmorpholino)pyridin-3-yl)-2-methyl-3H-imidazo[4,5-b]pyridin-5-yl)pyridin-2-amine]
0.5 to 100 | Cc1nc2ccc(-c3ccncc3)nc2n1-c1ccc2[nH]ccc2c1 [Compound 136, 3-(1H-indol-5-yl)-2-methyl-5-(pyridin-4-yl)-3H-imidazo[4,5-b]pyridine]
0.5 to 100 | Cc1nc2ccc(-c3ccnc(N)c3)nc2n1-c1ccnc(N2CCOCC2)c1 [Compound 164, 4-(2-methyl-3-(2-morpholinopyridin-4-yl)-3H-imidazo[4,5-b]pyridin-5-yl)pyridin-2-amine]
0.5 to 100 | Cc1nc2ccc(-c3ccncc3)nc2n1-c1ccc(N2CCN(C)CC2)cc1 [Compound 132, 2-methyl-3-(4-(4-methylpiperazin-1-yl)phenyl)-5-(pyridin-4-yl)-3H-imidazo[4,5-b]pyridine]
